Reference: patent publication US20130323361A1, “NUTRITIONAL COMPOSITIONS INCLUDING EXOGENOUS VITAMIN K2” (NESTEC S.A., priority 2009, published 2013)

Key:
Assay type in all cases: in vivo, Male Sprague-Dawley rats
[1] = tested on: 4E-BP 1 (Thr37); experiment: mTOR signaling: 4E-BP1 phosphorylation in gastrocnemius muscle of LPS-challenged rats; conditions: 25 or 50 microgram oral daily over 7 days, LPS 0.5 mg/kg IP, compared to LPS treatment
Description: (§1) Male Sprague-Dawley rats (175 g) are kept on a 12-h light:dark cycle with food (Harlan-Teklad Rodent Chow, Madison, Wis.) and water provided freely. Animals are administered daily doses of vitamin K2 (MK-7) or saline (control) via oral gavage over 7 days. Stock solutions of vitamin K2 are prepared containing 3.5 g/L HCO-60 and 1 g/L of […] in buffer A (0.15 M NaCl, 0.05 M Tris-HCl, pH 7.5). The K2 is dissolved by sonication during five pulses of 5 set with an amplitude of 6 pm. Solutions thus obtained are clear, homogeneous, and stable. […]
(§2) Analysis of mTOR Signaling to elFs—Gastrocnemius muscles are weighed and homogenized in 7 volumes of buffer containing 20 mM HEPES (pH 7.4), 100 mM potassium chloride, 0.2 mM EDTA, 2 mM EGTA, 50 mM sodium fluoride, 50 mM glycerophosphate, 0.1 mM phenylmethylsulfonyl fluoride, 1 mM benzamidine, 1 mM dithiothreitol (DTT), and 0.5 mM sodium vanadate. […] Samples are analyzed for the phosphorylation status of 4E-BP 1 (Thr37) and ribosomal protein S6 (Ser 235/236), the anti-phosphospecific antibodies were obtained from Cell Signaling Technology, Beverly, Mass. Additionally, samples are analyzed for phosphorylated IKKα/β (Ser176/180; Cell Signaling Technology) and phosphorylated p65 (Ser536; Cell Signaling Technology).

[2] = tested on: plasma TNF-a; experiment: Plasma TNF-a in LPS-challenged rats; conditions: 25 or 50 microgram oral daily over 7 days, LPS 0.5 mg/kg IP 2 hours after last dose, sacrifice four hours later, compared to LPS treated animals
Description: (§3) Male Sprague-Dawley rats (175 g) are kept on a 12-h light:dark cycle with food (Harlan-Teklad Rodent Chow, Madison, Wis.) and water provided freely. Animals are administered daily doses of vitamin K2 (MK-7) or saline (control) via oral gavage over 7 days. Stock solutions of vitamin K2 are prepared containing 3.5 g/L HCO-60 and 1 g/L of […] in buffer A (0.15 M NaCl, 0.05 M Tris-HCl, pH 7.5). The K2 is dissolved by sonication during five pulses of 5 set with an amplitude of 6 pm. Solutions thus obtained are clear, homogeneous, and stable. Shortly before vitamin K administration the stock solutions are diluted five times with buffer A, leading to a final HCO-60 concentration of 0.7 g/L. Further dilutions (as required) are made with 0.7 g/L HCO-60 in buffer A. Each dilution step is followed by sonication as described above. In all cases vitamin K2 is administered to the rats in 0.5 mL samples, with either 25 or 50 microgram oral doses.
On the final day (Day 7), rodents are administered vitamin K2 and 2 hours later were given an IP dose of LPS (Escherichia coli serotype 0111:B4, L2630, Sigma) intraperitoneally (0.5 mg/kg of body weight). Four hours later animals are sacrificed.

[3] = tested on: IKKα/β (Ser176/180); experiment: Immunoblot of phosphorylated IKKα/β in gastrocnemius muscle of LPS-challenged rats; conditions: 25 or 50 microgram oral daily over 7 days, LPS 0.5 mg/kg IP, compared to LPS treatment
Description: as §1, §2

[4] = tested on: ribosomal protein S6 (Ser 235/236); experiment: mTOR signaling: ribosomal protein S6 phosphorylation in gastrocnemius muscle of LPS-challenged rats; conditions: 25 or 50 microgram oral daily over 7 days, LPS 0.5 mg/kg IP, compared to LPS treatment
Description: as §1, §2

[5] = tested on: total mixed muscle protein; experiment: Measurement of protein synthesis (fractional rate Ks, radioactive phenylalanine incorporation) in LPS-challenged rats; conditions: 25 or 50 microgram oral daily over 7 days, LPS 0.5 mg/kg IP, under conditions of inflammatory sepsis, compared to LPS treatment
Description: as §3, with “doses. […]” for “doses.”
Measurement of Protein Synthesis—The fractional rate of synthesis (Ks) is estimated from the rate of incorporation of radioactive phenylalanine into total mixed muscle protein using the specific radioactivity of serum phenylalanine as representative of the precursor pool. […]

[6] = tested on: NFαB p65; experiment: Immunoblot of phosphorylated p65 in gastrocnemius muscle of LPS-challenged rats; conditions: 25 or 50 microgram oral daily over 7 days, LPS 0.5 mg/kg IP, compared to LPS treatment
Description: as §1, §2

CC(C)=CCC/C(C)=C/CC/C(C)=C/CC/C(C)=C/CC/C(C)=C/CC/C(C)=C/CC/C(C)=C/CC1=C(C)C(=O)c2ccccc2C1=O [K2, vitamin K2 (MK-7)]
decrease in 4E-BPI(Thr-37) phosphorylation [1]: abrogates the decrease
rise of plasma TNF-a [2]: significant decrease in the rise
drop in phosphorlyation for IKKα/β [3]: significant blunting of the drop in phosphorlyation
decrease in ribosomal protein S6 phosphorylation [4]: abrogates the decrease
fractional rate of mixed muscle protein synthesis [5]: greater preservation
NFαB p65 induction [6]: significant blunting
